This is an account of results in US5744161A, “Use of piperine as a bioavailability enhancer” (priority 1995, dated 1998).

Several values for one entry are separate records, joined by “and”; a condition that tells them apart may be missing. Equal entries are not always repeated. Entries after “also recorded” stand apart in the source; their conditions may differ. Where two headings read alike, the source gives them in different places.

For data set [1] the following is noted: with piperine, cited from earlier work.
The conditions of data set [2]: 20 mg piperine daily for seven days, then 300 mg phenytoin; cited from earlier work.
Data set [3] has as its system cytochrome P-450. The note with it: cited from earlier work.
For data set [4], the system named is preweaned mice. The note with it: cited from earlier work; for carcinogenic potency compared with methylcholantrene / tumor development: injected, preweaned mice; for effect on carcinogenic activity of safarole, tannic acid or methylcholantrene: fed to injected mice.
The conditions of data set [5]: cited from earlier work.
Data set [6] can be described thus: Blood levels of vitamin A (retinol) before and after 14 days supplementation. Format: in vivo, human. The note with it: 5 mg piperine with beta-carotene, in words. As to the method:
Piperine known under the trademark Bioperine® consisting of 98% piperine has been evaluated in a nutrient bioavailability experiment.
A dose of 5 mg of piperine, and up to 15 mg, would most likely not interfere with the metabolism of a majority of drugs as previously discussed. […] Retinol, or vitamin A, is a product of metabolic conversion of beta-carotene, and its blood levels would likely be affected by enzymatic inhibition/stimulation with piperine.
Values of Vitamin A (retinol) before treatment and after
14 days supplementation with Bioperine ®

Data set [7] in a line: Margin of bioenhancing dose of piperine versus LD50 in rodents. The note with it: in vivo; maximum approx. 15 mg/person/day, no more than 20 mg/day; read-out: bioenhancing dose less than LD50 dose. The arrangement: species or system mice and rats. The procedure:
Black pepper contains approximately 5-9% piperine and is listed by the FDA as an herb which is generally recognized as safe (GRAS) for its intended use as spice, seasoning, or flavoring.
The dose of piperine considered as bioenhancing absorption of nutrients is considered 0.0004-0.15 mg of piperine/kg body weight.

Data set [8] deals with Rat. The note with it: cited from earlier work.
The conditions of data set [9]: co-administered drugs; cited from earlier work.
In data set [10] the test system is rats. The note with it: cited from earlier work.
For data set [11], the system named is laboratory animals. The note with it: broad range of doses; cited from earlier work.
Data set [12] relates to Mice. The note with it: cited from earlier work.
In data set [13] the test system is V-79 lung fibroblasts. The note with it: in vitro; cited from earlier work.
Data set [14] concerns benzo(a)pyrene activation. The note with it: cited from earlier work.
Data set [15] deals with rats. The note with it: 100 mg and 800 mg/kg intragastric; 10 mg/kg and 100 mg/kg intra-peritoneal; cited from earlier work.
Data set [16] concerns mice treated with potent hepatotoxins and carbon tetrachloride. The note with it: in vivo and in vitro experiments; cited from earlier work.
Data set [17] deals with mice treated with potent hepatotoxins tetra-hydroperoxide and carbon tetrachloride. The note with it: cited from earlier work.
Data set [18] has as its system rats injected with carageenin. The note with it: cited from earlier work.
[19] abbreviates: 5 to 20 times the average daily human intake.
Setting [20] is: dose that significantly inhibited pregnancy.
[21] abbreviates: in vivo and in vitro experiments.

Turning to `CC(C)NCC(O)COc1cccc2ccccc12` (stereo not shown) [propranolol], in [1] (3 mg dose), the “elimination rate of propranolol” value was “did not affect the elimination rate; also recorded: without slowing down the drug elimination rate” and the “maximum blood concentration increase of propranolol” value is given as “two fold; also recorded: doubling its blood levels”. Moreover, the “plasma / blood levels of propranolol” value in data set [1] is given as “significant increase in plasma levels; also recorded: significant increase in blood levels”.

For the compound `O=C1NC(=O)C(c2ccccc2)(c2ccccc2)N1` [phenytoin], in data set [2], the “blood concentration of phenytoin” value is recorded as “increased blood levels; also recorded: rose more rapidly”, the elimination of phenytoin entry is “dramatically prolonged the elimination time; also recorded: significantly slower elimination”, the “maximum concentration of phenytoin” value is “significantly higher concentrations” and the “time to maximum concentration of phenytoin” value is “shorter time”.

For the compound `C=CCc1ccc2c(c1)OCO2` [safarole], the “increase of cytochrome P-450 content of hepatic microsomes” value in data set [3] (pretreatment of rats) was “about 50%”. In data set [4], the “carcinogenic potency compared with methylcholantrene” value is recorded as “weak carcinogens” and the tumor development result is given as “developed tumors”.

As for `O=C(OC[C@H]1O[C@@H](OC(=O)c2cc(O)c(O)c(OC(=O)c3cc(O)c(O)c(O)c3)c2)[C@H](OC(=O)c2cc(O)c(O)c(OC(=O)c3cc(O)c(O)c(O)c3)c2)[C@@H](OC(=O)c2cc(O)c(O)c(OC(=O)c3cc(O)c(O)c(O)c3)c2)[C@@H]1OC(=O)c1cc(O)c(O)c(OC(=O)c2cc(O)c(O)c(O)c2)c1)c1cc(O)c(O)c(OC(=O)c2cc(O)c(O)c(O)c2)c1` [tannic acid], in data set [4], the “carcinogenic potency compared with methylcholantrene” value was “weak carcinogens” and the tumor development entry is “developed tumors”.

In the case of `Cc1ccc2cc3c(ccc4ccccc43)c3c2c1CC3` [methylcholantrene], the tumor development result in [4] is on record as “developed tumors”.

For the compound `C=C(C)[C@H]1CC=C(C)CC1` [d-limonene], the “effect on carcinogenic activity of safarole, tannic acid or methylcholantrene” value in data set [4] was “reduced their carcinogenic activity”.

On to `Cn1c(=O)c2[nH]cnc2n(C)c1=O` [theophylline], for which the “maximum concentration of theophylline, increase” value in [5] (20 mg piperine daily for seven days, then 150 mg theophylline) is 1.5 times higher. Moreover, the “blood levels of theophylline” value in data set [5] (20 mg piperine for seven days prior) is given as “increased blood levels”.

Take `O=C(/C=C/C=C/c1ccc2c(c1)OCO2)N1CCCCC1` [piperine]: in data set [6], the “blood levels of retinol / conversion of beta-carotene to vitamin A” value is on record as “remained unchanged throughout the experiment; also recorded: does not elevate the conversion of beta-carotene to vitamin A”. Also, the selectivity ratio in data set [7] is at most 40000. Moreover, the LD50 in [8] (Rat weanling) is recorded as 585.0 mg/kg body weight. Moreover, the LD50 in [8] (Rat) is 514.0 mg/kg body weight and 800.0 mg/kg body weight. Also, the “bioavailability of a number of drugs” value in [9] was “increase the bioavailability, blood levels and efficacy of a number of drugs”. Moreover, in [10] (setting [19]), the clinical symptoms result is listed as “no clinical symptoms” and the “food intake, growth pattern, organ weights” value is reported as “did not affect”. Also, the “blood chemistry (RBC, WBC, differential count, hemoglobin, serum proteins, albumins, globulins, glucose, cholesterol, aminotransferases, phosphatases)” value in data set [10] (treated vs untreated animals) is recorded as “no alterations”. The “general growth pattern, body to organ weight ratio, clinical symptomatology and blood chemistry” value in data set [11] was “does not cause any abnormality”. The anti-fertility activity entry in data set [12] (5 mg/kg body weight/day) is reported as “no anti-fertility activity”. Besides, the inhibition of pregnancy entry in [12] (12.5 mg/kg body weight, twice a day, intraperitoneal or oral) was “inhibited significantly pregnancy in mice”. In data set [12] (12.5 mg/kg body weight, twice a day), the “effectiveness at pre- and post-implantation periods” value was “effective at both pre- and post-implantation periods”. Moreover, in data set [12] (setting [20]), the clinically noticeable toxicity is “did not produce clinically noticeable toxicity”, the “effect on estrogen cycle” value is listed as “did not interfere with the estrogen cycle” and the uterotropic effect result is reported as “did not show uterotropic effect”. For the same compound, the “effect on benzo(a)pyrene cytotoxicity” value in data set [13] was “significantly enhanced benzo(a)pyrene cytotoxicity”. In data set [14] (by lowering benzo(a)pyrene-oxide production), the “effect on benzo(a)pyrene cytotoxicity” value is given as “decreasing benzo(a)pyrene cytotoxicity”. The “effect on benzo(a)pyrene activation (benzo(a)pyrene-oxide production)” value in data set [14] is given as “inhibit benzo(a)pyrene activation”. Further, the “serum sorbitol dehydrogenase (SDH), ALT, AST and isocitrate dehydrogenase (ICD)” value in data set [15] is “None of the treatment regiments altered significantly”. Besides, in data set [16], the “enzymatic leakage of glutamate pyruvate transaminase and alkaline phosphatase” value is “reduced enzymatic leakage”. In addition, in data set [17] (setting [21]), the hepatoprotective action entry is given as “hepatoprotective action” and the lipid peroxidation result is “decrease in lipid peroxidation”. Moreover, the “reduced glutathione and total thiols in the liver” value in [17] (mouse, in vivo) was “prevented depletion of reduced glutathione and total thiols”. Besides, in data set [18], the acid phosphatase levels result was “leveling off increased levels of acid phosphatase” and the lipid peroxide formation entry is “inhibiting lipid peroxide formation”. Further, the “decrease of cytochrome P-450 content of hepatic microsomes” value in [3] (treatment of rats) is listed as “approximately 20%”. Further, the “effect on carcinogenic activity of safarole, tannic acid or methylcholantrene” value in data set [4] was “did not modify their carcinogenic activity”.
